Reference: the supplement of paper PMC5412046
Structures can show the parent of a compound that is named as a salt.

Experiments:
[1] = test system: SB.mhdgc-1; assay: AC50 for growth inhibition (viability) (log10 M); higher = less potent; conditions: SB.mhdgc-1 (hereditary c.1380delA CDH1 gastric cancer)
Method in brief: (§1)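 Values are log half-maximal activity concentrations from four-parameter fits of DMSO-normalised viability, restricted to high-quality curve classes. Patient-derived gastric cancer cells, hereditary or sporadic, were plated at 500 cells per 1536 well in 5 μL medium and given 23 nL compound in DMSO by pintool across 11 threefold dilutions, the top final concentration being 46 μM. Viability was read by ViewLux luminescence after 48 h and a 30 min CellTiter-Glo step at room temperature.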

[2] = test system: SB.msgc-1; assay: as above; conditions: SB.msgc-1 (sporadic gastric cancer)
Method in brief: as §1

Row | SMILES | AC50 for growth inhibition (log10 M) [1] | AC50 for growth inhibition (log10 M) [2]
1 | C[C@@H](Oc1cc(-c2cnn(C3CCNCC3)c2)cnc1N)c1c(Cl)ccc(F)c1Cl [Crizotinib] | -4.68 | -4.63
2 | Cc1cccc(-c2[nH]c(C(C)(C)C)nc2-c2ccc3nccnc3c2)n1 | -4.83 | -5.73
3 | COC1=CC=C(C=C1O)C/2=C/C(=O)C3=C(O2)C=C(O[C@@H]4O[C@H](CO[C@@H]5O[C@@H](C)[C@H](O)[C@@H](O)[C@H]5O)[C@@H](O)[C@H](O)[C@H]4O)C=C3O [Diosmin] | -5.03 | -5.58
4 | Cc1nc(N)ncc1-c1nc(N2CCOCC2)c2sc(C(C)(C)O)cc2n1 [GNE-490] | -6.38 | -7.43
5 | C[C@H](NC(=O)/C(C#N)=C/c1cccc(Br)n1)c1ccccc1 [WP-1066] | -5.43 | -5.48
6 | O=C(Nc1cccc(Nc2ncc(Br)c(NCCc3cnc[nH]3)n2)c1)N1CCCC1 [BX-912] | -4.98 | -4.78
7 | COC(=O)Nc1ccc(-c2nc(N3CCOCC3)c3cnn(C4CCN(Cc5cccnc5)CC4)c3n2)cc1 [WYE-687] | -7.18 | -4.68
8 | CCC(c1ccc(O)cc1)C(CC)c1ccc(O)cc1 (centres undefined) [Hexestrol] | -5.88 | -5.88
9 | COc1ccc(-c2ccc3cc(C(=O)O)ccc3c2)cc1C12CC3CC(CC(C3)C1)C2 [Adapalene] | -5.28 | -5.23
10 | COC1=C(OCCCN2CCOCC2)C=CC\3=C1/N=C(/NC(=O)C4=CN=C(N)N=C4)N5CC/N=C35 [BAY-80-6946] | -6.84 | -7.44
11 | Cn1cc(-c2ccc3nnc(Sc4ccc5ncccc5c4)n3n2)cn1 [SGX-523] | -5.13 | -4.78
12 | COc1ccc2c(c1)c(CC(=O)O)c(C)n2C(=O)c1ccc(Cl)cc1 [Indomethacin] | -6.03 | -5.93
13 | COc1c(Cl)cc2c([nH]c3cnccc32)c1NC(=O)c1cccnc1C [MLN-120B] | -5.83 | -5.23
14 | CCN(CC)CCCC(C)Nc1ccnc2cc(Cl)ccc12 (centres undefined) [Chloroquine (CQ)] | -4.98 | -4.73
15 | COC1=CC=C(C(=C1)OC(C)C)C/2=N/[C@@H]([C@@H](N2C(=O)N3CCNC(=O)C3)C4=CC=C(Cl)C=C4)C5=CC=C(Cl)C=C5 [Nutlin-3] | -5.93 | -4.78
16 | Cc1cc(Cl)ccc1OCCCC(=O)NO [Droxinostat] | -5.98 | -4.83
17 | Cc1ccc(NC(=O)C2(c3ccc4c(c3)OC(F)(F)O4)CC2)nc1-c1cccc(C(=O)O)c1 [Lumacaftor] | -6.73 | -7.63
18 | C[C@H]1C[C@@H]2[C@H](CC[C@@]3(C)[C@H]2CC[C@]3(OC(C)=O)C(C)=O)[C@@]\4(C)CCC(=O)\C=C14 [Medroxyprogesterone acetate] | -5.23 | -4.83
19 | OCCNC1CCCc2c1[nH]c1ccc(-c3ccccc3)cc21 (centres undefined) [CASIN] | -4.73 | -4.63
20 | CC(C)C[C@H](NC(=O)[C@H](CCc1ccccc1)NC(=O)CN1CCOCC1)C(=O)N[C@@H](Cc1ccccc1)C(=O)N[C@@H](CC(C)C)C(=O)[C@@]1(C)CO1 [Carfilzomib] | -7.93 | -7.68
21 | CCCn1c(=O)c2[nH]c(C34CC5CC3C[C@@H](C5)C4)nc2n(CCC)c1=O [Rolofylline] | -4.68 | -4.83
22 | CC(O)(C#Cc1ccc2c(c1)N(c1nc(N)ncc1Cl)CC2)c1nccs1 (centres undefined) | -4.73 | -4.88
23 | S=C(NCc1ccc2c(c1)OCO2)N1CCN(c2ncnc3c2oc2ccccc23)CC1 [Amuvatinib] | -4.92 | -5.57
24 | CCOc1cc2ncc(C#N)c(Nc3ccc(F)c(Cl)c3)c2cc1NC(=O)/C=C/CN(C)C [Pelitinib] | -7.38 | -7.43
25 | N#CC(=C(/N)Sc1ccccc1N)/C(C#N)=C(\N)Sc1ccccc1N [U-0126] | -5.88 | -4.73
26 | O=[S+]([O-])(O)c1ccc2cc(/N=N/c3cc([S+](=O)([O-])O)c4cccnc4c3O)ccc2c1 | -4.68 | -4.93

Row | SMILES | AC50 for growth inhibition (log10 M) [1] | AC50 for growth inhibition (log10 M) [2]
27 | COCCOc1nc(-c2ccc(Cl)c(Cl)c2)n(-c2ccc(NC(=O)CCl)cc2)n1 [MI-2] | -4.73 | -5.08
28 | CN1/C=C(\N=C(NC2=CC=C(C=C2)C(=O)N3CCOCC3)/C1=O)/C4=C(C)C(=CC=C4)NC(=O)C5=CC=C(C=C5)C(C)(C)C [CGI-1746] | -4.63 | -5.23
29 | CCOc1cc2c(c(F)c1OCC)C(=N)N(CC(=O)c1cc(N3CCOCC3)c(OC)c(C(C)(C)C)c1)C2 [E5555] | -5.03 | -4.68
30 | CN(C)C(=O)[C@H](O)[C@H](Cc1ccccc1)NC(=O)c1cc2cc(Cl)ccc2[nH]1 | -5.23 | -5.13
31 | CC12CC3CC(C)(C1)CC(N)(C3)C2 [Memantine hydrochloride] | -4.73 | -4.83
32 | O=C(CCCCCCC(=O)Nc1ccc([C@H]2O[C@@H](CSc3nc(-c4ccccc4)c(-c4ccccc4)o3)C[C@@H](c3ccc(CO)cc3)O2)cc1)NO [Tubacin] | -4.73 | -4.58
33 | COc1cc([C@@H]2c3cc4c(cc3[C@H](O)[C@H]3COC(=O)[C@@H]23)OCO4)cc(OC)c1OC [Picropodophyllin] | -6.48 | -6.73
34 | CCCCC(C)(C)[C@H](O)/C=C/[C@H]1[C@H](O)CC(=O)[C@@H]1C/C=C\CCCC(=O)O [16,16-dimethyl PGE2] | -4.68 | -4.63
35 | Cc1cc(C[S+](=O)([O-])c2ccccc2)cc(OCc2ccc(CN3CCC[C@@H]3CO)cc2)c1 [PF-543] | -4.78 | -4.83
36 | CCc1nc(N)nc(N)c1-c1ccc(Cl)cc1 [Pyrimethamine] | -5.38 | -5.48
37 | CN(C)CC(=O)N1CCC(CC1)C2=CC=C(NC(=O)C3=NC(=C[NH]3)C#N)C(=C2)\C4=C\CCCC4 | -6.28 | -5.23
38 | Cc1cccc(-c2[nH]c(C(C)(C)C)nc2-c2ccc3c(c2)OCO3)n1 | -4.83 | -4.88
39 | CC(=O)O[C@@]1(CC[C@H]2[C@@H]3\C=C(Cl)/C4=C/C(=O)[C@@H]5C[C@@H]5[C@]4(C)[C@H]3CC[C@]12C)C(C)=O [Cyproterone acetate] | -5.08 | -4.68
40 | CCCNC(=O)[C@H]1O[C@@H]1C(=O)N[C@H](C(=O)N1CCC[C@H]1C(=O)OC)C(C)CC (some centres undefined) [CA-074 Me] | -4.78 | -4.73
41 | CC1=C(/C=C/C(C)=C/C=C/C(C)=C/C=C/C=C(C)/C=C/C=C(C)/C=C/C2=C(C)CCCC2(C)C)C(C)(C)CCC1 [beta-Carotene] | -5.13 | -4.88
42 | COc1cc2ncnc(Nc3cccc(Cl)c3)c2cc1OC [AG-1478] | -7.43 | -6.23
43 | CCOC(=O)[C@@H](N)Cc1ccc(-c2cc(O[C@H](c3ccc(Cl)cc3-n3ccc(C)n3)C(F)(F)F)nc(N)n2)cc1.O=C(O)CNC(=O)c1ccccc1 [Telotristat etiprate] | -4.78 | -5.03
44 | c1ccc(CCCN2CCN(CCOC(c3ccccc3)c3ccccc3)CC2)cc1 | -4.73 | -4.68
45 | O=C(O)C1CCCN(CCC=C(c2ccccc2)c2ccccc2)C1 (centres undefined) | -5.53 | -5.03
46 | CC1(C)CC\C2=C(/O1)C3=C(C=CC=C3)C(=O)C2=O [beta-Lapachone] | -4.58 | -4.63
47 | CCOC(=O)N1CCN(/[N+]([O-])=N/Oc2ccc([N+](=O)[O-])cc2C#N)CC1 [JS-59-4] | -4.78 | -5.13
48 | C[N]1C=C(C2=C1C=CC=C2)\C3=C(\C(=O)NC3=O)C4=C5CC(CN)CC[N]5C6=C4C=CC=C6 (centres undefined) [Ro-31-8425] | -4.88 | -4.78
49 | O=C(/C=C/c1ccc(CN(CCO)CCc2c[nH]c3ccccc23)cc1)NO [Dacinostat] | -5.88 | -6.63
50 | N#C/C(=C1/Nc2ccccc2S1)c1ccnc(OCc2ccc(CN3CCOCC3)cc2)n1 | -7.43 | -5.98
51 | CCNC(=O)Nc1ccc(-c2nc3c(c(N4CCOC[C@@H]4C)n2)CCN(C2COC2)C3)cc1 [GDC-0349] | -5.28 | -4.83
52 | C[N]1C=C(C2=CC=CC=C12)\C3=C(\C(=O)NC3=O)C4=C[N](C5CCN(CC5)CC6=NC=CC=C6)C7=C4C=CC=C7 [Enzastaurin] | -4.98 | -4.98
